System: mice having autism spectrum disorder
Experiment: Anxiety experiment (elevated plus maze) in mouse model of autism spectrum disorder
Type: in vivo
Conditions: 500 mg/kg orally once a day for 2 weeks; vs untreated autism spectrum disorder mouse
From the text: Pregnant C57BL/6 mice were subcutaneously injected with valproic acid (VPA) at the time when the gestation period reached 12 days. Male mice were selected from the mice that were born from the pregnant mice that were subcutaneously injected with VPA, and these were used as animals for a mouse model of autism spectrum disorder.
Since 3-week-old mice are at the critical stage, 3-week-old normal mice and 3-week-old mice having autism spectrum disorder were subjected to a sociality experiment, a social cognition experiment, and an anxiety experiment to identify the underlying features. 500 mg/kg of L-serine (hereinafter, referred to as AST-001) was orally administered for 2 weeks to mice having autism spectrum disorder, in which the underlying features had been confirmed. The mice having autism spectrum disorder, to which AST-001 had been orally administered for 2 weeks, were again subjected to a sociality experiment, a social cognition experiment, and an anxiety experiment.
For 2 weeks from the age of 3 weeks, the normal group and the autism spectrum disorder group were subjected to oral administration with water every day once a day, and in the drug group, mice having autism spectrum disorder were orally administered with 500 mg/kg of AST-001 (dissolved in water) once a day. […]

**Q.** Which results are given for `N[C@@H](CO)C(=O)O` [AST-001, L-serine]?
**A.** time staying in the closed-arm space of the elevated plus maze: short time; time staying in the open-arm space of the elevated plus maze: remarkably long time

From patent US12478602B2, “Method for treating a disorder” (priority 2023, dated 2025)
